Experimental data as given in patent US20110251379A1, “COMPOUNDS USEFUL FOR TREATING NEURODEGENERATIVE DISORDERS” (Satori Pharmaceuticals, Inc., priority 2010, published 2011).
Like-named read-outs stand apart in the source and are kept apart here.

What was measured:
Assay type in all cases: cell-based
Aβ-42 = test: MSD Human (6E10) Ab 3-PLEX elisa, conditioned media of 2B7 cells: Aβ-42; conditions: Homo sapiens; for IC50: Aβ-42 (superscript c); for inhibition at 20 µM: Aβ-42, 20 μM
Protocol: (§1) Assays were conducted to determine the ability of a Compound of Formula I to modulate […], and Aβ-38.
(§2) Plates with capture antibodies were blocked for 1-2 hours at room temperature with 150 μL of the manufactures blocking reagent.
(§3) Conditioned Media: • Cultured 2B7 cells in 96 well plate with 250 uL of media per well until confluent; • Prepared serial dilutions of compounds in DMSO at 100× the final desired concentration; • Washed wells with 2B7 cells 1× with 250 uL of media; • Diluted DMSO stocks 1:100 into media: • Added 250 μL of media containing compounds (1% DMSO) to wells with 2B7 cells for 5 hours at 37° C.
(§4) Elisa Sample Prep: • Diluted conditioned media: 1 part media with 1% DMSO and 1 part blocking buffer; • 150 μL of the 250 μL of conditioned media were used.
(§5) […] CURVE SAMPLE PREP: Prepared per manufacturer's protocol (see above) • Seven point standard curve samples were prepared that contained Aβ-42, Aβ-40, and Aβ-38. The highest concentration of Aβ-42 and Aβ-3-38 was 3,000 pg/mL and the highest concentration of Aβ-40 was 10,000 pg/mL. Subsequent serial dilutions were 1:3 and the final composition of each sample was 1 part blocking buffer and 1 part cell medium containing 1% DMSO.
(§6) Overnight Sample Incubation: • Blocked plates are washed 5× with MSD wash buffer with a plate washer • 25 uL of detection antibody and blocker G reagent in MSD blocking solution is added • 25 uL of samples (1 part conditioned media containing 1% DMSO and 1 part MSD blocking buffer) are then added. • plates are incubated overnight at 4 degrees C. or 2 hours at room temp
(§7) Final Wash and Readout: • Wash wells 5× with MSD wash buffer • Added 150 μL 2×MSD read buffer • Read with MSD imager.
(§8) A-Beta peptide levels for each peptide are calculated from the standard curve using the MSD software provided with the MSD 2400 Imager. Percent vehicle values for each compound dosage were then calculated and fit to a 4 parameter curve generating IC50 values.

Aβ-40 = test: MSD Human (6E10) Ab 3-PLEX elisa, conditioned media of 2B7 cells: Aβ-40; conditions: for IC50: Homo sapiens, Aβ-40 (superscript b)
Protocol: as §1, §2, §3, §4, §5, §6, §7, §8

Aβ-38 = test: MSD Human (6E10) Ab 3-PLEX elisa, conditioned media of 2B7 cells: Aβ-38; conditions: Homo sapiens, Aβ-38 (superscript a)
Protocol: as §1, §2, §3, §4, §5, §6, §7, §8

SMILES	IC50 (Aβ-42; read-out: 50% reduction value) [nM]	IC50 (Aβ-42; read-out: IC50 range) [nM]	IC50 (Aβ-40; read-out: 50% reduction value) [µM]	IC50 (Aβ-40; read-out: IC50 range) [µM]	IC50 (Aβ-38; read-out: 50% reduction value) [nM]	IC50 (Aβ-38; read-out: IC50 range) [nM]	% Inh. (range) (Aβ-40; Aβ-40, 20 μM)	inhibition at 20 µM (Aβ-42) [%]
C=C(C)CO[C@@H](C1C[C@@H](C)[C@H]2C(O1)[C@H](O)[C@@]1(C)C3CC[C@H]4C(C)(C)C(OC(=O)NC5CNC5)CC[C@@]45C[C@@]35CC[C@]21C)C(C)(C)O (stereo partly shown)	< 1000	< 1000	1 to 10	> 10	< 1000			
CC(C)CO[C@@H](C1C[C@@H](C)[C@H]2C(O1)[C@H](O)[C@@]1(C)C3CC[C@H]4C(C)(C)C(OC(=O)NC5CNC5)CC[C@@]45C[C@@]35CC[C@]21C)C(C)(C)O (stereo partly shown)	< 1000	< 1000	1 to 10		1000 to 10000			
CC(C)CO[C@@H](C1C[C@@H](C)[C@H]2C(O1)[C@H](O)[C@@]1(C)C3CC[C@H]4C(C)(C)C(OC(=O)NC5CN(C=O)C5)CC[C@@]45C[C@@]35CC[C@]21C)C(C)(C)O (stereo partly shown)	< 1000	1000 to 10000	1 to 10	1 to 10	1000 to 10000			
CCO[C@@H](C1C[C@@H](C)[C@H]2C(O1)[C@H](O)[C@@]1(C)C3CC[C@H]4C(C)(C)C(OC(=O)N5CC[C@H](C(=O)O)C5)CC[C@@]45C[C@@]35CC[C@]21C)C(C)(C)O (stereo partly shown)	< 1000	< 1000	> 10		1000 to 10000			
CCO[C@@H](C1C[C@@H](C)[C@H]2C(O1)[C@H](O)[C@@]1(C)C3CC[C@H]4C(C)(C)C(OC(=O)N5CC[C@@H](C(=O)O)C5)CC[C@@]45C[C@@]35CC[C@]21C)C(C)(C)O (stereo partly shown)	< 1000	< 1000	> 10		1000 to 10000			
CCO[C@@H](C1C[C@@H](C)[C@H]2C(O1)[C@H](O)[C@@]1(C)C3CC[C@H]4C(C)(C)C(O[C@H]5CN(CCC(=O)O)CCO5)CC[C@@]45C[C@@]35CC[C@]21C)C(C)(C)O (stereo partly shown)	< 1000	< 1000	1 to 10		< 1000			
CCO[C@@H](C1C[C@@H](C)[C@H]2C(O1)[C@H](O)[C@@]1(C)C3CC[C@H]4C(C)(C)C(O[C@H]5CN(CCCC(=O)O)CCO5)CC[C@@]45C[C@@]35CC[C@]21C)C(C)(C)O (stereo partly shown)	< 1000	< 1000	1 to 10		1000 to 10000	1000 to 10000		
CCO[C@@H](C1C[C@@H](C)[C@H]2C(O1)[C@H](O)[C@@]1(C)C3CC[C@H]4C(C)(C)C(O[C@H]5CN([C@@H](C)C(=O)O)CCO5)CC[C@@]45C[C@@]35CC[C@]21C)C(C)(C)O (stereo partly shown)	< 1000	< 1000	> 10		< 1000			
CCO[C@@H]([C@H]1C[C@@H](C)[C@H]2[C@H](O1)[C@H](O)[C@@]1(C)C3CC[C@H]4C(C)(C)C(OC(=O)N5CCC5)CC[C@@]45C[C@@]35CC[C@]21C)C(C)(C)O (stereo partly shown)	< 1000	< 1000			< 1000	1000 to 10000	E/F^b (20 μM)	
CCO[C@@H]([C@H]1C[C@@H](C)[C@H]2[C@H](O1)[C@H](O)[C@@]1(C)C3CC[C@H]4C(C)(C)C(OC(=O)NC5COC5)CC[C@@]45C[C@@]35CC[C@]21C)C(C)(C)O (stereo partly shown)	< 1000	< 1000	1 to 10		< 1000			
CCO[C@@H]([C@H]1C[C@@H](C)[C@H]2[C@H](O1)[C@H](O)[C@@]1(C)C3CC[C@H]4C(C)(C)C(OC(=O)NC5CNC5)CC[C@@]45C[C@@]35CC[C@]21C)C(C)(C)O (stereo partly shown)	< 1000	< 1000	1 to 10	> 10	< 1000			
CCS[C@@H](C1C[C@@H](C)C2C(O1)[C@H](O)[C@@]1(C)C3CC[C@H]4C(C)(C)C(O[C@H]5CN(C6COC6)CCO5)CC[C@@]45C[C@@]35CC[C@]21C)C(C)(C)O (stereo partly shown)			> 10		1000 to 10000			25 to 75
CC(C)OC(C)(C)[C@H](O)C1C[C@@H](C)[C@H]2C(O1)[C@H](O)[C@@]1(C)C3CC[C@H]4C(C)(C)C(O)CC[C@@]45C[C@@]35CC[C@]21C (stereo partly shown)			> 10		1000 to 10000			25 to 75
